# Measured values published in PMC5218480 (PLoS ONE, 2017).
# System: MV-4-11 cells
# Experiment: Gene expression microarray analysis (Affymetrix PrimeView) and GSEA
# Type: cell-based, human
# Parameters: RFU PODN (11730768_x_at) / Fold change /veh PODN (11730768_x_at) / RFU LINC00158 (11744669_a_at) / Fold change /veh LINC00158 (11744669_a_at) / RFU DUSP10 (11751237_a_at) / Fold change /veh DUSP10 (11751237_a_at) / RFU ID3 (11757404_x_at) / Fold change /veh ID3 (11757404_x_at) / RFU PLEKHG5 (11737974_s_at) / Fold change /veh PLEKHG5 (11737974_s_at) / RFU LRRC4B (11730491_at) / Fold change /veh LRRC4B (11730491_at) / RFU GIMAP4 (11747438_a_at) / Fold change /veh GIMAP4 (11747438_a_at) / RFU KRT8 (11758183_x_at) / Fold change /veh KRT8 (11758183_x_at) / RFU CNN1 (11734310_a_at) / Fold change /veh CNN1 (11734310_a_at) / RFU VPS37D (11726825_at) / Fold change /veh VPS37D (11726825_at) / RFU C10orf10 (11716522_x_at) / Fold change /veh C10orf10 (11716522_x_at) / RFU KIR2DL2 /// KIR2DL4 /// KIR2DL5A /// KIR2DL5B /// KIR2DS1 /// KIR2DS2 /// KIR2DS3 /// KIR2DS4 /// KIR3DL3 /// KIR3DL3 /// KIR3DS1 (11738374_at) / Fold change /veh KIR2DL2 /// KIR2DL4 /// KIR2DL5A /// KIR2DL5B /// KIR2DS1 /// KIR2DS2 /// KIR2DS3 /// KIR2DS4 /// KIR3DL3 /// KIR3DL3 /// KIR3DS1 (11738374_at) / RFU C1QL1 (11718748_at) / Fold change /veh C1QL1 (11718748_at) / RFU TMPRSS4 (11747572_a_at) / Fold change /veh TMPRSS4 (11747572_a_at) / RFU HAMP (11756126_x_at) / Fold change /veh HAMP (11756126_x_at) / RFU RNFT2 (11725882_a_at) / Fold change /veh RNFT2 (11725882_a_at) / RFU NR4A2 (11747474_a_at) / Fold change /veh NR4A2 (11747474_a_at) / RFU ABCC12 (11746883_a_at) / Fold change /veh ABCC12 (11746883_a_at) / RFU TMEM136 (11760407_x_at) / Fold change /veh TMEM136 (11760407_x_at) / RFU CLDN22 /// WWC2 (11732394_at) / Fold change /veh CLDN22 /// WWC2 (11732394_at) / RFU HLA-DPB1 (11760878_x_at) / Fold change /veh HLA-DPB1 (11760878_x_at) / RFU SPINT1 (11716480_a_at) / Fold change /veh SPINT1 (11716480_a_at) / RFU GAP43 (11754022_s_at) / Fold change /veh GAP43 (11754022_s_at) / RFU A4GNT (11735810_at) / Fold change /veh A4GNT (11735810_at) / RFU PRB3 (11715151_x_at) / Fold change /veh PRB3 (11715151_x_at) / RFU TUBB4B (11761932_at) / Fold change /veh TUBB4B (11761932_at) / RFU CAPN14 (11732068_a_at) / Fold change /veh CAPN14 (11732068_a_at) / RFU TMCC2 (11721928_a_at) / Fold change /veh TMCC2 (11721928_a_at) / RFU IRGQ (11745062_a_at) / Fold change /veh IRGQ (11745062_a_at) / RFU FAM174B (11720279_a_at) / Fold change /veh FAM174B (11720279_a_at) / RFU TMPRSS4 (11748680_a_at) / Fold change /veh TMPRSS4 (11748680_a_at) / RFU FAM212B (11763350_a_at) / Fold change /veh FAM212B (11763350_a_at) / RFU PLEKHG5 (11743358_a_at) / Fold change /veh PLEKHG5 (11743358_a_at) / RFU ZSCAN30 (11745921_a_at) / Fold change /veh ZSCAN30 (11745921_a_at) / RFU CMKLR1 (11741424_a_at) / Fold change /veh CMKLR1 (11741424_a_at) / RFU LOC101060620 /// MAPK8IP1 (11723275_at) / Fold change /veh LOC101060620 /// MAPK8IP1 (11723275_at) / RFU SPTSSB (11747773_x_at) / Fold change /veh SPTSSB (11747773_x_at) / RFU PRSS12 (11739890_at) / Fold change /veh PRSS12 (11739890_at) / RFU BIN1 (11741810_x_at) / Fold change /veh BIN1 (11741810_x_at) / RFU WNT11 (11732464_a_at) / Fold change /veh WNT11 (11732464_a_at) / RFU C10orf10 (11716521_a_at) / Fold change /veh C10orf10 (11716521_a_at) / RFU C5orf56 (11738089_at) / Fold change /veh C5orf56 (11738089_at) / RFU CYB561 (11721691_x_at) / Fold change /veh CYB561 (11721691_x_at) / RFU ANKRD19P (11752326_a_at) / Fold change /veh ANKRD19P (11752326_a_at) / RFU OR2T12 /// OR2T33 /// OR2T8 (11738714_s_at) / Fold change /veh OR2T12 /// OR2T33 /// OR2T8 (11738714_s_at) / RFU VCAN (11748164_a_at) / Fold change /veh VCAN (11748164_a_at) / RFU JSRP1 (11732532_at) / Fold change /veh JSRP1 (11732532_at) / RFU KRTAP10-11 (11738290_x_at) / Fold change /veh KRTAP10-11 (11738290_x_at) / RFU MYO3A (11730013_a_at) / Fold change /veh MYO3A (11730013_a_at) / RFU EBF3 (11725865_a_at) / Fold change /veh EBF3 (11725865_a_at) / RFU CAMK2N1 (11719241_x_at) / Fold change /veh CAMK2N1 (11719241_x_at) / RFU C5orf56 (11738088_a_at) / Fold change /veh C5orf56 (11738088_a_at) / RFU OLFML3 (11715873_a_at) / Fold change /veh OLFML3 (11715873_a_at) / RFU LOC100653217 /// NTM (11731650_a_at) / Fold change /veh LOC100653217 /// NTM (11731650_a_at) / RFU MAPK11 (11762145_a_at) / Fold change /veh MAPK11 (11762145_a_at) / RFU FIZ1 (11724087_x_at) / Fold change /veh FIZ1 (11724087_x_at) / RFU OASL (11726364_x_at) / Fold change /veh OASL (11726364_x_at) / RFU SOX15 (11748057_x_at) / Fold change /veh SOX15 (11748057_x_at) / RFU CD79A (11719716_a_at) / Fold change /veh CD79A (11719716_a_at) / RFU HIST1H1D (11736915_at) / Fold change /veh HIST1H1D (11736915_at) / RFU CASKIN2 (11723855_a_at) / Fold change /veh CASKIN2 (11723855_a_at) / RFU LOC730098 (11760151_x_at) / Fold change /veh LOC730098 (11760151_x_at) / RFU OR4N2 (11742367_at) / Fold change /veh OR4N2 (11742367_at) / RFU PRRT2 (11749266_a_at) / Fold change /veh PRRT2 (11749266_a_at) / RFU SNX32 (11753110_a_at) / Fold change /veh SNX32 (11753110_a_at) / RFU CDHR5 (11726645_a_at) / Fold change /veh CDHR5 (11726645_a_at) / RFU RCAN1 (11760418_a_at) / Fold change /veh RCAN1 (11760418_a_at) / RFU FAM167A (11723789_a_at) / Fold change /veh FAM167A (11723789_a_at) / RFU FAM26E (11764081_at) / Fold change /veh FAM26E (11764081_at) / RFU ISYNA1 (11749810_s_at) / Fold change /veh ISYNA1 (11749810_s_at) / RFU ACY1 (11761880_at) / Fold change /veh ACY1 (11761880_at) / RFU 11764098_at / Fold change /veh 11764098_at / RFU SAMD14 (11745864_x_at) / Fold change /veh SAMD14 (11745864_x_at) / RFU NPB (11741838_a_at) / Fold change /veh NPB (11741838_a_at) / RFU TMPRSS6 (11731388_a_at) / Fold change /veh TMPRSS6 (11731388_a_at) / RFU KRTAP10-2 (11738614_at) / Fold change /veh KRTAP10-2 (11738614_at) / RFU ARHGAP8 /// PRR5-ARHGAP8 (11727945_x_at) / Fold change /veh ARHGAP8 /// PRR5-ARHGAP8 (11727945_x_at) / RFU KRTAP5-7 /// NADSYN1 (11734609_at) / Fold change /veh KRTAP5-7 /// NADSYN1 (11734609_at) / RFU RASL12 (11751679_a_at) / Fold change /veh RASL12 (11751679_a_at) / RFU CDKN2B (11736163_a_at) / Fold change /veh CDKN2B (11736163_a_at) / RFU PRF1 (11729649_at) / Fold change /veh PRF1 (11729649_at) / RFU, ZNF638 /// ZNF638-IT1 / Fold change vs veh, ZNF638 /// ZNF638-IT1 / RFU, PANK3 / Fold change vs veh, PANK3 / RFU, SH3YL1 / Fold change vs veh, SH3YL1 / RFU, ZEB2 / Fold change vs veh, ZEB2 / RFU, NRIP1 / Fold change vs veh, NRIP1 / RFU, PTTG1IP / Fold change vs veh, PTTG1IP / RFU, CAPN2 / Fold change vs veh, CAPN2 / RFU, MED14 / Fold change vs veh, MED14 / RFU, SNORA58 / Fold change vs veh, SNORA58 / RFU, C1orf63 / Fold change vs veh, C1orf63 / RFU, LRRFIP1 / Fold change vs veh, LRRFIP1 / RFU, NDUFAF7 / Fold change vs veh, NDUFAF7 / RFU, SLC12A2 / Fold change vs veh, SLC12A2 / RFU, IBTK / Fold change vs veh, IBTK / RFU, ESF1 / Fold change vs veh, ESF1 / Fold change vs veh, TMEM50B / RFU, TAOK1 / Fold change vs veh, TAOK1 / RFU, ACBD3 / Fold change vs veh, ACBD3 / RFU, TMA16 / Fold change vs veh, TMA16 / RFU, RWDD3 / Fold change vs veh, RWDD3 / RFU, BCAT1 / Fold change vs veh, BCAT1 / RFU, EDEM3 / Fold change vs veh, EDEM3 / RFU, TMEM33 / Fold change vs veh, TMEM33 / RFU, WDR75 / Fold change vs veh, WDR75 / RFU, AHCTF1 / Fold change vs veh, AHCTF1 / RFU, TFRC / Fold change vs veh, TFRC / RFU, ZDHHC17 / Fold change vs veh, ZDHHC17 / RFU, NOM1 / Fold change vs veh, NOM1 / RFU, ARL8B / Fold change vs veh, ARL8B / RFU, ZBTB11 / Fold change vs veh, ZBTB11 / RFU, TAMM41 / Fold change vs veh, TAMM41 / RFU, KIAA1704 /// LOC100996395 / Fold change vs veh, KIAA1704 /// LOC100996395 / RFU, ING1 / Fold change vs veh, ING1 / RFU, TRMT61B / Fold change vs veh, TRMT61B / RFU, FUBP3 / Fold change vs veh, FUBP3 / RFU, TP53 / Fold change vs veh, TP53 / RFU, TNKS2 / Fold change vs veh, TNKS2 / RFU, ZFP14 / Fold change vs veh, ZFP14 / RFU, ACTR2 / Fold change vs veh, ACTR2 / RFU, PPP3R1 / Fold change vs veh, PPP3R1 / RFU, PIK3R1 / Fold change vs veh, PIK3R1 / RFU, HNRNPA1 / Fold change vs veh, HNRNPA1 / RFU, RNF170 / Fold change vs veh, RNF170 / RFU, ZNF28 / Fold change vs veh, ZNF28 / RFU, RNGTT / Fold change vs veh, RNGTT / RFU, OGT / Fold change vs veh, OGT / RFU, BRD1 / Fold change vs veh, BRD1 / RFU, MARS / Fold change vs veh, MARS / RFU, ZNF655 / Fold change vs veh, ZNF655 / RFU, FAHD1 / Fold change vs veh, FAHD1 / RFU, BDP1 / Fold change vs veh, BDP1 / RFU, LRRCC1 / Fold change vs veh, LRRCC1 / RFU, ARID1A / Fold change vs veh, ARID1A / RFU, ZNF146 / Fold change vs veh, ZNF146 / RFU, ZNF330 / Fold change vs veh, ZNF330 / RFU, GPN3 / Fold change vs veh, GPN3 / RFU, C9orf123 / Fold change vs veh, C9orf123 / RFU, N4BP2L2 / Fold change vs veh, N4BP2L2 / RFU, ARFIP1 / Fold change vs veh, ARFIP1 / RFU, FAM179B / Fold change vs veh, FAM179B / RFU, BCL10 / Fold change vs veh, BCL10 / RFU, UHRF1BP1L / Fold change vs veh, UHRF1BP1L / RFU, BET1 / Fold change vs veh, BET1 / RFU, CNOT2 / Fold change vs veh, CNOT2 / RFU, ZNF268 / Fold change vs veh, ZNF268 / Fold change vs veh, ZNF507 / RFU, DGCR2 / Fold change vs veh, DGCR2 / RFU, WDSUB1 / Fold change vs veh, WDSUB1 / Fold change vs veh, HSP90B1 /// MIR3652 / RFU, ADSS / Fold change vs veh, ADSS / RFU, GK / Fold change vs veh, GK / RFU, ZNF148 / Fold change vs veh, ZNF148 / RFU, TAF9 / Fold change vs veh, TAF9 / RFU, SLC1A5 / Fold change vs veh, SLC1A5 / RFU, SLMO2 / Fold change vs veh, SLMO2 / RFU, ABCC4 / Fold change vs veh, ABCC4 / RFU, LOC101060439 /// RAP1B / Fold change vs veh, LOC101060439 /// RAP1B / RFU, RFX7 / Fold change vs veh, RFX7 / RFU, GTPBP10 / Fold change vs veh, GTPBP10 / RFU, CNEP1R1 / Fold change vs veh, CNEP1R1 / RFU, BIVM-ERCC5 /// ERCC5 / Fold change vs veh, BIVM-ERCC5 /// ERCC5 / RFU, ILF3 / Fold change vs veh, ILF3 / RFU 11762660_at / Fold change /veh 11762660_at / RFU VCAN (11757783_s_at) / Fold change /veh VCAN (11757783_s_at) / RFU DDX43 (11728927_at) / Fold change /veh DDX43 (11728927_at) / RFU KRT8 (11758188_x_at) / Fold change /veh KRT8 (11758188_x_at) / RFU NKD1 (11759106_at) / Fold change /veh NKD1 (11759106_at) / RFU SRD5A1 (11742802_a_at) / Fold change /veh SRD5A1 (11742802_a_at) / RFU TPSAB1 /// TPSB2 (11721975_s_at) / Fold change /veh TPSAB1 /// TPSB2 (11721975_s_at) / RFU GSTM3 (11746129_a_at) / Fold change /veh GSTM3 (11746129_a_at) / RFU IL23R (11737362_x_at) / Fold change /veh IL23R (11737362_x_at) / RFU TMEM51 (11727254_a_at) / Fold change /veh TMEM51 (11727254_a_at) / RFU PIWIL2 (11732686_x_at) / Fold change /veh PIWIL2 (11732686_x_at) / RFU ORM1 (11744905_x_at) / Fold change /veh ORM1 (11744905_x_at) / RFU CCDC152 (11743942_at) / Fold change /veh CCDC152 (11743942_at) / RFU ECM1 (11717891_a_at) / Fold change /veh ECM1 (11717891_a_at) / RFU IL23R (11748794_a_at) / Fold change /veh IL23R (11748794_a_at) / RFU TNFAIP8L3 (11732012_x_at) / Fold change /veh TNFAIP8L3 (11732012_x_at) / RFU MBOAT4 (11741988_at) / Fold change /veh MBOAT4 (11741988_at) / RFU 11764193_at / Fold change /veh 11764193_at / RFU TMEM53 (11763286_at) / Fold change /veh TMEM53 (11763286_at) / RFU MAGEB2 (11727129_at) / Fold change /veh MAGEB2 (11727129_at) / RFU TMEM200A (11744735_a_at) / Fold change /veh TMEM200A (11744735_a_at) / RFU CCDC152 (11751479_a_at) / Fold change /veh CCDC152 (11751479_a_at) / RFU FAM211A (11726209_a_at) / Fold change /veh FAM211A (11726209_a_at) / RFU RGS16 (11746705_a_at) / Fold change /veh RGS16 (11746705_a_at) / RFU VCAN (11755009_s_at) / Fold change /veh VCAN (11755009_s_at) / RFU RHOB (11743442_s_at) / Fold change /veh RHOB (11743442_s_at) / RFU RGS16 (11720943_a_at) / Fold change /veh RGS16 (11720943_a_at) / RFU RGS16 (11720944_at) / Fold change /veh RGS16 (11720944_at) / RFU, VPS4B / Fold change vs veh, VPS4B / RFU, CREB1 / Fold change vs veh, CREB1 / RFU, DNAJC13 / Fold change vs veh, DNAJC13 / RFU, GNAQ / Fold change vs veh, GNAQ / RFU, CDK5R1 / Fold change vs veh, CDK5R1 / RFU, ZRANB3 / Fold change vs veh, ZRANB3 / RFU, CUL4A / Fold change vs veh, CUL4A / RFU, CCNY / Fold change vs veh, CCNY / RFU, UFL1 / Fold change vs veh, UFL1 / RFU, COG3 / Fold change vs veh, COG3 / RFU, DIAPH2 / Fold change vs veh, DIAPH2 / RFU, SKA2 / Fold change vs veh, SKA2 / RFU, AFF3 / Fold change vs veh, AFF3 / RFU, LMF1 / Fold change vs veh, LMF1 / RFU, IPO11 / Fold change vs veh, IPO11 / RFU, DFFB / Fold change vs veh, DFFB / RFU, FOXP1 / Fold change vs veh, FOXP1 / RFU, CARD8 / Fold change vs veh, CARD8 / RFU, STRN3 / Fold change vs veh, STRN3 / RFU, ADK / Fold change vs veh, ADK / RFU, RASSF2 / Fold change vs veh, RASSF2 / RFU, WIPF1 / Fold change vs veh, WIPF1 / RFU, LARP1B / Fold change vs veh, LARP1B / RFU, RASA1 / Fold change vs veh, RASA1 / RFU, RB1 / Fold change vs veh, RB1 / RFU, PPFIA1 / Fold change vs veh, PPFIA1 / RFU, MAT2A / Fold change vs veh, MAT2A / RFU, CCT5 / Fold change vs veh, CCT5 / RFU, WDR92 / Fold change vs veh, WDR92 / RFU, CUX1 / Fold change vs veh, CUX1 / RFU, TTC7A / Fold change vs veh, TTC7A / RFU, TMEM135 / Fold change vs veh, TMEM135 / RFU, DEPTOR / Fold change vs veh, DEPTOR / RFU, CPM / Fold change vs veh, CPM / RFU, DNAJB6 / Fold change vs veh, DNAJB6 / RFU, CACNA2D3 / Fold change vs veh, CACNA2D3 / RFU, DTX4 / Fold change vs veh, DTX4 / RFU, TFCP2 / Fold change vs veh, TFCP2 / RFU, GMCL1 /// GMCL1P1 / Fold change vs veh, GMCL1 /// GMCL1P1 / RFU, AEBP2 / Fold change vs veh, AEBP2 / RFU, SNHG1 /// SNORD22 /// SNORD25 /// SNORD26 /// SNORD27 /// SNORD28 /// SNORD29 /// SNORD31 / Fold change vs veh, SNHG1 /// SNORD22 /// SNORD25 /// SNORD26 /// SNORD27 /// SNORD28 /// SNORD29 /// SNORD31 / Fold change (Aza/veh), C12orf56 (ProbeSet 11735607_a_at) / Fold change (ACY-1035/veh), C12orf56 (ProbeSet 11735607_a_at) / Fold change (Aza/veh), FGFR1OP (ProbeSet 11751329_s_at) / Fold change (ACY-1035/veh), FGFR1OP (ProbeSet 11751329_s_at) / Fold change (Aza/veh), VPS36 (ProbeSet 11739960_a_at) / Fold change (ACY-1035/veh), VPS36 (ProbeSet 11739960_a_at) / RFU SYPL1 (11715823_x_at) / Fold change /veh SYPL1 (11715823_x_at) / RFU IGFBP7 (11715501_s_at) / Fold change /veh IGFBP7 (11715501_s_at) / RFU REEP3 (11722064_at) / Fold change /veh REEP3 (11722064_at) / RFU IGLL1 (11728026_x_at) / Fold change /veh IGLL1 (11728026_x_at): dose or concentration left out as unconfirmed
# Conditions: ProbeSet 11746640_a_at; LIST D
smiles,measurement,value
Nc1ncn([C@@H]2O[C@H](CO)[C@@H](O)[C@H]2O)c(=O)n1 [azacitidine],"Fold change vs veh, RASSF2",0.77
